Species on record: Rattus norvegicus
Experiment: DrugMatrix - Regimen: Daily Repeat
Type: toxicity, organism-based, Sprague-Dawley
Design: regimen Daily Repeat, gender Male, age 6-8 weeks
Conditions: in vivo, po, route oral GAVAGE, […]; for ABSOLUTE BASOPHIL / ABSOLUTE EOSINOPHIL / ABSOLUTE LYMPHOCYTE / ABSOLUTE MONOCYTE / ABSOLUTE SEGMENTED NEUTROPHIL / BASOPHIL / EOSINOPHIL / ERYTHROCYTE COUNT / HEMATOCRIT / HEMOGLOBIN / LEUKOCYTE COUNT / LYMPHOCYTE / MEAN CORPUSCULAR HEMOGLOBIN / MEAN CORPUSCULAR HEMOGLOBIN CONCENTRATION / MEAN CORPUSCULAR VOLUME / MONOCYTE / NEUTROPHIL / NUCLEATED RED BLOOD CELLS / PLATELET COUNT: tissue Blood; for ALANINE AMINOTRANSFERASE / ALBUMIN / ALKALINE PHOSPHATASE / ASPARTATE AMINOTRANSFERASE / BLOOD UREA NITROGEN / CARBON DIOXIDE / CHLORIDE / CHOLESTEROL / CREATINE PHOSPHOKINASE / CREATININE / GLUCOSE / LACTATE DEHYDROGENASE / LIPASE / PHOSPHORUS / POTASSIUM / SODIUM / TOTAL BILIRUBIN / TOTAL PROTEIN / URIC ACID: tissue Plasma
[1] = 30 mg/kg, 120 h, dose level Low, time 5 day
[2] = 60 mg/kg, 72 h, dose level High, time 3 day
[3] = 60 mg/kg, 120 h, dose level High, time 5 day

SMILES: Cc1oncc1C(=O)Nc1ccc(C(F)(F)F)cc1 [LEFLUNOMIDE]
- ABSOLUTE BASOPHIL [1]: 0 CELLS/uL
- ABSOLUTE EOSINOPHIL [1]: 25.33 CELLS/uL
- ABSOLUTE LYMPHOCYTE [1]: 6685.33 CELLS/uL
- ABSOLUTE MONOCYTE [1]: 149.33 CELLS/uL
- ABSOLUTE SEGMENTED NEUTROPHIL [1]: 606.67 CELLS/uL
- BASOPHIL [1]: 0%
- EOSINOPHIL [1]: 0.33%
- ERYTHROCYTE COUNT [1]: 4.69 x10E6/uL
- HEMATOCRIT [1]: 30.27%
- HEMOGLOBIN [1]: 11.73 G/DL
- LEUKOCYTE COUNT [1]: 7.47 x10E3/uL
- LYMPHOCYTE [1]: 89.33%
- MEAN CORPUSCULAR HEMOGLOBIN [1]: 25.03 pg
- MEAN CORPUSCULAR HEMOGLOBIN CONCENTRATION [1]: 38.77 G/DL
- MEAN CORPUSCULAR VOLUME [1]: 64.57 fL
- MONOCYTE [1]: 2%
- NEUTROPHIL [1]: 8.33%
- NUCLEATED RED BLOOD CELLS [1]: 0 /100WBC
- PLATELET COUNT [1]: 507.67 x10E3/uL
- ALANINE AMINOTRANSFERASE [1]: 47.33 u/L
- ALBUMIN [1]: 3.93 G/DL
- ALKALINE PHOSPHATASE [1]: 195.67 u/L
- ASPARTATE AMINOTRANSFERASE [1]: 69.33 u/L
- BLOOD UREA NITROGEN [1]: 12.67 mg/dL
- CARBON DIOXIDE [1]: 34 mmol/L
- CHLORIDE [1]: 103 MEQ/L
- CHOLESTEROL [1]: 104.33 mg/dL
- CREATINE PHOSPHOKINASE [1]: 179 u/L
- CREATININE [1]: 0.11 mg/dL
- GLUCOSE [1]: 152.67 mg/dL
- LACTATE DEHYDROGENASE [1]: 60 u/L
- LIPASE [1]: 11.67 u/L
- PHOSPHORUS [1]: 12.6 mg/dL
- POTASSIUM [1]: 5.71 MEQ/L
- SODIUM [1]: 146.27 MEQ/L
- TOTAL BILIRUBIN [1]: 0.1 mg/dL
- TOTAL PROTEIN [1]: 5.9 G/DL
- URIC ACID [1]: 0.27 mg/dL
- ABSOLUTE BASOPHIL [2]: 0 CELLS/uL
- ABSOLUTE EOSINOPHIL [2]: 0 CELLS/uL
- ABSOLUTE LYMPHOCYTE [2]: 5003.33 CELLS/uL
- ABSOLUTE MONOCYTE [2]: 42.67 CELLS/uL
- ABSOLUTE SEGMENTED NEUTROPHIL [2]: 720.67 CELLS/uL
- BASOPHIL [2]: 0%
- EOSINOPHIL [2]: 0%
- ERYTHROCYTE COUNT [2]: 5.59 x10E6/uL
- HEMATOCRIT [2]: 34.57%
- HEMOGLOBIN [2]: 13.67 G/DL
- LEUKOCYTE COUNT [2]: 5.77 x10E3/uL
- LYMPHOCYTE [2]: 89%
- MEAN CORPUSCULAR HEMOGLOBIN [2]: 24.5 pg
- MEAN CORPUSCULAR HEMOGLOBIN CONCENTRATION [2]: 39.53 G/DL
- MEAN CORPUSCULAR VOLUME [2]: 61.87 fL
- MONOCYTE [2]: 0.67%
- NEUTROPHIL [2]: 10.33%
- NUCLEATED RED BLOOD CELLS [2]: 0 /100WBC
- PLATELET COUNT [2]: 824 x10E3/uL
- ALANINE AMINOTRANSFERASE [2]: 39.67 u/L
- ALBUMIN [2]: 3.1 G/DL
- ALKALINE PHOSPHATASE [2]: 225.67 u/L
- ASPARTATE AMINOTRANSFERASE [2]: 100.33 u/L
- BLOOD UREA NITROGEN [2]: 14 mg/dL
- CARBON DIOXIDE [2]: 30 mmol/L
- CHLORIDE [2]: 98.67 MEQ/L
- CHOLESTEROL [2]: 115.33 mg/dL
- CREATINE PHOSPHOKINASE [2]: 296.67 u/L
- CREATININE [2]: 0.11 mg/dL
- GLUCOSE [2]: 170 mg/dL
- LACTATE DEHYDROGENASE [2]: 93.67 u/L
- LIPASE [2]: 11.33 u/L
- PHOSPHORUS [2]: 10.73 mg/dL
- POTASSIUM [2]: 4.3 MEQ/L
- SODIUM [2]: 142.97 MEQ/L
- TOTAL BILIRUBIN [2]: 0.17 mg/dL
- TOTAL PROTEIN [2]: 4.97 G/DL
- URIC ACID [2]: 0.43 mg/dL
- ABSOLUTE BASOPHIL [3]: 0 CELLS/uL
- ABSOLUTE EOSINOPHIL [3]: 23 CELLS/uL
- ABSOLUTE LYMPHOCYTE [3]: 3653 CELLS/uL
- ABSOLUTE MONOCYTE [3]: 48 CELLS/uL
- ABSOLUTE SEGMENTED NEUTROPHIL [3]: 376 CELLS/uL
- BASOPHIL [3]: 0%
- EOSINOPHIL [3]: 0.67%
- ERYTHROCYTE COUNT [3]: 6.19 x10E6/uL
- HEMATOCRIT [3]: 39%
- HEMOGLOBIN [3]: 15.23 G/DL
- LEUKOCYTE COUNT [3]: 4.1 x10E3/uL
- LYMPHOCYTE [3]: 89.33%
- MEAN CORPUSCULAR HEMOGLOBIN [3]: 24.77 pg
- MEAN CORPUSCULAR HEMOGLOBIN CONCENTRATION [3]: 39.07 G/DL
- MEAN CORPUSCULAR VOLUME [3]: 63.4 fL
- MONOCYTE [3]: 1.33%
- NEUTROPHIL [3]: 8.67%
- NUCLEATED RED BLOOD CELLS [3]: 0 /100WBC
- PLATELET COUNT [3]: 441.33 x10E3/uL
- ALANINE AMINOTRANSFERASE [3]: 25.67 u/L
- ALBUMIN [3]: 3.73 G/DL
- ALKALINE PHOSPHATASE [3]: 203 u/L
- ASPARTATE AMINOTRANSFERASE [3]: 75.67 u/L
- BLOOD UREA NITROGEN [3]: 64.67 mg/dL
- CARBON DIOXIDE [3]: 24.33 mmol/L
- CHLORIDE [3]: 98.5 MEQ/L
- CHOLESTEROL [3]: 138.67 mg/dL
- CREATINE PHOSPHOKINASE [3]: 227.67 u/L
- CREATININE [3]: 0.33 mg/dL
- GLUCOSE [3]: 145.67 mg/dL
- LACTATE DEHYDROGENASE [3]: 137 u/L
- LIPASE [3]: 22.67 u/L
- PHOSPHORUS [3]: 11.8 mg/dL
- POTASSIUM [3]: 5.41 MEQ/L
- SODIUM [3]: 137.7 MEQ/L
- TOTAL BILIRUBIN [3]: 0.27 mg/dL
- TOTAL PROTEIN [3]: 6.53 G/DL
- URIC ACID [3]: 0.93 mg/dL

Reference: ChEMBL document CHEMBL3885881, “DrugMatrix”
